Assay results reported in patent US20140356383A1, “ADMINISTRATION OF AN ANTI-GCC ANTIBODY-DRUG CONJUGATE AND A DNA DAMAGING AGENT IN THE TREATMENT OF CANCER” (priority 2013, published 2014).

Tests used:
HT29 (WT / vector) cells = test: Direct cytotoxicity assay (WST), HT29 wild-type / vector cells; assay type: cell-based, human
Description: To measure each antibody's ability to bind, internalize and kill target expressing cells, cytotoxicity assays were performed. In this assay, cells were incubated with various concentrations of the unconjugated primary anti-GCC antibody and a fixed non-toxic concentration of DM1-conjugated anti-human Fc secondary antibody (indirect cytotoxicity) or with various concentrations of toxin conjugated anti-GCC mAb (direct cytotoxicity). Cell viability was measured by WST assay after 4 days incubation.
Auristatin (analog of dolastatin 10) and maytansine class toxins were evaluated as ADCs with anti-GCC mAb. These toxins are all inhibitors of microtubule polymerization, acting as anti-mitotics.
The 5F9-auristatin toxin conjugates were tested in direct cytotoxicity assays of a variety of cells which been transfected with GCC nucleic acid and selected for expression of GCC. […] As a negative control, antibody drug conjugates were also made with sc209 antibody, which is a human IgG1 monoclonal antibody raised against an unrelated target, with no reactivity to GCC.

293 GCC#2 tumors = test: Efficacy study with auristatin conjugates in 293 GCC#2 tumors, q7d×4; assay type: in vivo, SCID mice; conditions: for T/C: treatment/control
Description: 293 GCC#2 tumor-bearing SCID mice were treated with 5F9 conjugates with vc MMAE, vcMMAF or mcMMAF at three doses in comparison with 209 conjugates of these toxins or with free toxins or vehicle control. Doses were administered iv on a q7d×4 schedule. Tumors were harvested at days 3, 7, 10, 13 and 17. […] Table 18 provides a summary of the results (TGI=tumor growth inhibition, T/C=treatment/control, TGD=tumor growth delay, CR/PR=complete response/partial response; p value=measure to judge statistical significance, NS=not significant).

[1] = system: PHTX-9c primary human colon tumor xenograft; test: Single agent antitumor activity in PHTX-9c (PHTX-09c) primary human colon tumor xenograft
Description: Female CB-17 SCID mice (eight weeks old) were inoculated subcutaneously (SC) into the flank with PHTX-9c tumor fragments (2 mm×2 mm). Tumor growth was monitored twice per week using vernier calipers and the mean tumor volume was calculated using the formula (0.5×[length×width^2]). When the mean tumor volume reached approximately 150 mm^3 (Study A) or 160 mm^3 (Study B), animals were randomized into treatment groups (n=10/group for Study A and n=9/group for Study B).
Doses were administered on Days 1, 8, and 15 for the QW schedule and Days 1, 4, 8, 11, 15, and 18 for the BIW schedule. […] The equivalent dose of linker+MMAE is 4% of the 5F9-vcMMAE dose. These calculations are based on a mean 3.9 MMAE molecules per antibody and a free antibody molecular weight of 150 kD. Actual antibody molecular weight will vary slightly due to degree of glycosylation.
Tumor volume and body weight were measured twice weekly and were continued beyond the treatment period to measure regrowth kinetics, as evidenced by tumor growth delay (TGD). Tumor volume measurements were continued until tumor volume reached 10% of the body weight in a single mouse within a treatment group, at which time the group was terminated. The percentage of tumor growth inhibition (TGI) ([mean tumor volume of the control group—mean tumor volume of a treated group]/mean tumor volume of the control group; a T/C ratio) was determined on Day 20. The T/C ratios across a treatment group were compared to the T/C ratios of the control group using a two-tailed Welch's t-test.
The differences in the tumor growth trends over time between pairs of treatment groups were assessed using linear mixed effects regression models. These models account for the fact that each animal was measured at multiple time points. A separate model was fit for each comparison, and the areas under the curve (AUC) for each treatment group were calculated using the predicted values from the model. The percent decrease in AUC (dAUC) relative to the reference group was then calculated.
The 5F9 vcMMAE immunoconjugate was tested for single agent anti-tumor activity in the four primary human tumor xengraft models at varying concentrations in order to explore whether GCC expression levels played a role in tumor sensitivity. […] Free-MMAE was also used as a negative control.

[2] = system: PHTX-21c primary human mCRC tumor xenograft; test: 5F9 vcMMAE single agent efficacy in PHTX-21c; assay type: in vivo, SCID mice; conditions: for anti-tumor activity maintained post-dosing: last dose on day 22
[3] = system: PHTX-11c primary human mCRC tumor xenograft; test: 5F9 vcMMAE single agent efficacy in PHTX-11c; assay type: in vivo, SCID mice
[4] = system: PHTX-249 Pa s.c. xenograft; test: 5F9 vcMMAE and gemcitabine in PHTX-249 Pa s.c. xenografts (Study CPGC-13-EF08); assay type: in vivo, CB-17 SCID mice
Description: 264.4 ul stock Gemcitabine into 3135.6 ul NS.
Day D0 was the first day of treatment.
Tumor volume was calculated using the formula: […]
A negative dAUC is interpreted as an increase in AUC relative to the reference. It is important to evaluate not only the P value, but also the dAUC. Comparisons with significant P values, but small dAUC values, may not be of interest.

[5] = Study A, 0.938 mg/kg IV QW × 3 doses
[6] = Study A, 1.875 mg/kg IV QW × 3 doses
[7] = Study A, 3.75 mg/kg IV QW × 3 doses
[8] = Study A, 7.5 mg/kg IV QW × 3 doses
[9] = Study B, 0.938 mg/kg IV QW × 3 doses
[10] = Study B, 1.875 mg/kg IV QW × 3 doses
[11] = Study B, 3.75 mg/kg IV BIW × 6 doses
[12] = Study B, 3.75 mg/kg IV QW × 3 doses
[13] = Study B, 7.5 mg/kg IV QW × 3 doses
[14] = Study B, 10.0 mg/kg IV QW × 3 doses

Substance: 5F9 vcMMAE: 5F9 mAb conjugated to MMAE using a vc (Val-Cit) linker; average drug loading about 3.6
- LD 50 (HT29 (WT / vector) cells; HT29, auristatin ADCs): 0.93 nM
- LD 50 (HT29 (WT / vector) cells; HT 29 WT, auristatin ADCs): 84 nM
- TGI (293 GCC#2 tumors; 75 μg/kg iv q7d×4): 54.5
- T/C (293 GCC#2 tumors; 75 μg/kg iv q7d×4): 0.45
- TGD (293 GCC#2 tumors; 75 μg/kg iv q7d×4, tumor growth delay): 4.4
- TGI (293 GCC#2 tumors; 150 μg/kg iv q7d×4): 83.5
- T/C (293 GCC#2 tumors; 150 μg/kg iv q7d×4): 0.17
- TGI (293 GCC#2 tumors; 300 μg/kg iv q7d×4): 96.9
- T/C (293 GCC#2 tumors; 300 μg/kg iv q7d×4): 0.03
- day tumors start to re-grow ([1]; PHTX-09c, 7.5 mg/kg and 10 mg/kg): ~40 days
- anti-tumor activity maintained post-dosing ([1]; PHTX-09c, 7.5 mg/kg and 10 mg/kg, last dose on day 15): 3 weeks
- single agent anti-tumor activity ([1]; PHTX-09c, 1.875-10 mg/kg I.V. QW×3 weeks): strong
- T/C ([1]; PHTX-09c, dose 0.938-10 mg/kg, QW, T/C=volume of tumor/control): 0.09
- BW change (mean maximum percent) [1, 5]: 9.0%
- TGD [1, 5]: 3.3 days
- TGI ([1]; Study A, 0.938 mg/kg IV QW × 3 doses, Day 20): 21.4 (p > 0.05) %
- BW change (mean maximum percent) [1, 6]: 10.6%
- TGD [1, 6]: 8.2 days
- TGI ([1]; Study A, 1.875 mg/kg IV QW × 3 doses, Day 20): 44.7 (p > 0.001) %
- BW change (mean maximum percent) [1, 7]: 9.0%
- TGD [1, 7]: 17.8 days
- TGI ([1]; Study A, 3.75 mg/kg IV QW × 3 doses, Day 20): 65.3 (p > 0.001) %
- BW change (mean maximum percent) [1, 8]: 7.5%
- days until first tumor >1000 mm^3 [1, 8]: (>58 days
- TGI ([1]; Study A, 7.5 mg/kg IV QW × 3 doses, Day 20): 84.1 (p > 0.001) %
- BW change (mean maximum percent) [1, 9]: −2.3%
- TGD [1, 9]: 3.8 days
- TGI ([1]; Study B, 0.938 mg/kg IV QW × 3 doses, Day 20): 20.7 (p > 0.001) %
- BW change (mean maximum percent) [1, 10]: 5.6%
- TGD [1, 10]: 6.6 days
- TGI ([1]; Study B, 1.875 mg/kg IV QW × 3 doses, Day 20): 41.3 (p > 0.001) %
- BW change (mean maximum percent) [1, 11]: −1.8%
- TGD [1, 11]: 31.9 days
- TGI ([1]; Study B, 3.75 mg/kg IV BIW × 6 doses, Day 20, 3.75 mg/kg): 84.9 (p > 0.001) %
- BW change (mean maximum percent) [1, 12]: −2.2%
- TGD [1, 12]: 16 days
- TGI ([1]; Study B, 3.75 mg/kg IV QW × 3 doses, Day 20): 65.7 (p > 0.001) %
- BW change (mean maximum percent) [1, 13]: 6.5%
- days until first tumor >1000 mm^3 [1, 13]: (>47 days
- TGI ([1]; Study B, 7.5 mg/kg IV QW × 3 doses, Day 20): 84.3 (p > 0.001) %
- BW change (mean maximum percent) [1, 14]: 7.2%
- days until first tumor >1000 mm^3 [1, 14]: (>56 days
- TGI ([1]; Study B, 10.0 mg/kg IV QW × 3 doses, Day 20, 10 mg/kg): 91.2 (p > 0.001) %
- greatest maximum body weight loss during treatment period ([1]; Study B, day 7, 0.18 mg/kg MMAE group and 0.938 mg/kg 5F9-vcMMAE group): 2.3%
- TGI ([1]; both studies (A and B), 0.938 mg/kg IV QW): 20.7-21.4%
- TGI ([1]; both studies (A and B), 1.875 mg/kg IV QW): 41.3-44.7%
- TGI ([1]; both studies (A and B), 3.75 mg/kg IV QW): 65.3-65.7%
- TGI ([1]; both studies (A and B), 7.5 mg/kg IV QW): 84.1-84.3%
- anti-tumor activity maintained post-dosing ([2]; 7.5 mg/kg): 7-8 weeks
- anti-tumor activity maintained post-dosing ([2]; 10 mg/kg): > 15 weeks
- single agent anti-tumor activity ([2]; 3.75-10 mg/kg I.V. QW×4): Moderate to strong in vivo anti-tumor activity
- T/C ([2]; dose 3.75-10 mg/kg, QW, T/C=volume of tumor/control): 0.23
- single agent sensitivity ([3]; 1.875-7.5 mg/kg I.V. QW×3 weeks): relatively resistant
- T/C ([3]; dose 1.875-7.5 mg/kg, on BIW): 0.5 on
- tumor regressions (animals) ([4]; PHTX-249 Pa (Studies CPGC-13-EF05/EF08), 5F9 vcMMAE 7.5 mg/kg, gemcitabine 15 mg/kg on days 1 and 3, alone or combined): no tumor regressions
- dAUC ([4]; group A: MLN0264 7.5 mg/kg QW, reference vehicle): 28.9%
